Consider three compounds from patent publication US8377867B2, “Use of epinecidin-1 peptides and anti-lipopolysaccharide factor peptides for treating microbial infection” (Academia Sinica, priority 2009, dated 2013).

Bridge positions count the residues as written; N and C are the ends. Ends that are not written are not given here. Peptide text beside a SMILES is read from it.

The subject of experiment [1] is T. vaginalis cells. Description: EtBr/acridine orange staining of T. vaginalis cells, epifluorescence microscopy. Format: cell-based, Trichomonas vaginalis. To be noted: peptide 200 μg/ml co-treated with metronidazole 100 μg/ml, 16 hours. The protocol: T. vaginalis cells (4000 cells/well) were co-treated with metronidazole (100 μg/ml) and Epinecidin-122-42 (200 μg/ml), csSALF55-76 (200 μg/ml), or 1sSALF122-42 (200 μg/ml) for 16 hours. Both metronidazole and the peptides were dissolved in PBS. The T. vaginalis cells were then stained with cold PBS containing 1 μg/ml ethidium bromide (EtBr) and 1 μg/ml acridine orange (AO) for 10 minutes and examined by epifluorescence microscopy.

Experiment [2] deals with T. vaginalis cells (ATCC 50148 and T1). Description: Scanning electron microscopy of T. vaginalis morphology. Format: cell-based, Trichomonas vaginalis. As to conditions: ATCC 50148 and T1 cells, peptide 100 or 200 μg/ml, 1, 4 and 16 hours. The protocol: The effect of the three peptides on morphology of T. vaginalis cells was examined by scanning electron microscopy (SEM) and transmission electron microscopy (TEM) as follows. Cells of the ATCC 50148 and T1 strains were cultured in a 96-well cell culture plate (1×10^4 cells/well). The ATCC 50148 cells were treated with Epinecidin-122-42 (100 μg/ml), csSALF55-76 (100 μg/ml), or 1sSALF122-42 (200 μg/ml) for 1, 4, and 16 hours and the T1 cells were treated with Epinecidin-122-42 (100 μg/ml), csSALF55-76 (200 μg/ml), or 1sSALF122-42 (100 μg/ml) for the same periods. T. vaginalis cells treated with PBS were used as a control. The treated cells were then analyzed by SEM. […] A large amount of cell debris was also observed in the peptide-treated cells.

For experiment [3] the test system is unchanged. Description: T. vaginalis cell viability, trypan blue exclusion assay. Format: cell-based, Trichomonas vaginalis. The protocol: Finally, the numbers of viable T. vaginalis cells after peptide treatment were counted following the method described in Ofer et al., Int. J. Parasitol., 38:959-968 (2008). Briefly, cells of ATCC 50148 and T1 were treated with each of the three peptides mentioned above at 25, 50, 100, or 200 μg/ml for 1, 4, and 16 h (overnight), then the viability was analyzed. Cell viability was then determined by the conventional trypan blue exclusion assay. […] More than 60% T1 cells died after being treated with this peptide at a concentration of 50 μg/ml for one hour.

The test system is the same in experiment [4]. Description: Transmission electron microscopy of T. vaginalis morphology. The class given is cell-based, Trichomonas vaginalis. As to conditions: ATCC 50148 and T1 cells, 16 hours, peptide 150-250 (Epinecidin 150 μg/ml, csSALF 250 mg/ml, lsSALF 150 or 200 μg/ml). The protocol:
The T. vaginalis cells mentioned above were also subjected to TEM analysis as described in Pan et al., DNA Cell Biol. 26:403-413 (2007). Briefly, the ATCC 50148 cells (2×10^4) were treated for 16 hours with Epinecidin-122-42 at a concentration of 150 μg/ml, csSALF55-76 at a concentration of […], and 1sSALF122-42 at a concentration of 150 μg/ml; the T1 cells (2×10^4) were treated for 16 hours with Epinecidin-122-42 at a concentration of 150 μg/ml, csSALF55-76 at a concentration of […], and 1sSALF122-42 at a concentration of 200 μg/ml. T. vaginalis cells treated with PBS were used as a control. Morphology of the treated cells was observed using a transmission electron microscope (Hitachi, H-7000, Tokyo, Japan) at 75 kV; see Pan et al., DNA Cell Biol. 26:403-413 (2007).

Experiment [5] has as its system C. albicans strain BCRC #20511. As to the kind of experiment: SEM and TEM of C. albicans morphology. Format: cell-based, Candida albicans. As to conditions: C. albicans BCRC #20511, peptide 50 μg/ml. The procedure:
The effect of Epinecidin-122-42 (50 μg/ml) on C. albicans cell morphology was analyzed by SEM and TEM following the methods mentioned above.

The test system of experiment [6] is Propionibacterium acnes (BCRC #10723). Description: SEM and TEM of P. acnes morphology. As to conditions: P. acnes BCRC #10723, peptide 100 μg/ml in PBS. The class given is cell-based. The protocol:
The effect of Epinecidin-122-42 on P. acnes morphology was examined by SEM and TEM as follows. BCRC #10723 cells were seeded in a 6-well plate (1×10^4 cells per well), cultured for a sufficient period, collected by centrifugation, and re-suspended in PBS to reach an OD550 value of 1.0. The bacterial suspension was mixed with a freshly prepared PBS solution containing the peptide at a concentration of 100 μg/ml or PBS as a control.

For experiment [7], the system named is C. albicans strain BCRC #20511. Format: cell-based, Candida albicans. The protocol: Cells of C. albicans strain BCRC #20511 were cultured following the protocol provided by BCRC. These cells were treated with peptide Epinecidin-122-42 at various concentrations and their growth inhibition was examined following the method disclosed in Pan et al., Int. Immunopharmacol. 7:687-700 (2007).

In experiment [8] the test system is Propionibacterium acnes (BCRC #10723). The class given is cell-based. The protocol:
Propionibacterium acnes (BCRC #10723) cells were cultured under the conditions recommended by Bioresource Collection and Research Centre (BCRC) in Taiwan (see bcrc.firdi,org.tw:819/bcrc/indexe.htm). Their growth inhibition by Epinecidin-122-42 was determined following the method described in Pan et al., DNA Cell Biol. 26:403-413 (2007). The minimum inhibitory concentration of this peptide against P. acnes was 200 μg/ml.

Where [9] appears, read: ATCC 50148 cells, 50 μg/ml, four hours.

Regarding `CSCC[C@@H]1NC(=O)[C@H](CCCNC(=N)N)NC(=O)CNC(=O)[C@H](CCCCN)NC(=O)[C@H](Cc2ccc(O)cc2)NC(=O)[C@H](Cc2ccc(O)cc2)NC(=O)[C@H](C(C)C)NC(=O)[C@H](CCC(N)=O)NC(=O)[C@H](Cc2ccccc2)NC(=O)[C@H](CCCNC(=N)N)NC(=O)[C@H](CCCCN)NC(=O)[C@H](CC(C)C)NC(=O)[C@H](Cc2ccc(O)cc2)NC(=O)[C@@H]2CCCN2C(=O)[C@H](CCCCN)NC(=O)[C@H](C(C)C)NC(=O)[C@H]([C@@H](C)O)NC(=O)[C@H](Cc2ccccc2)NC(=O)[C@H](CCCCN)NC(=O)[C@@H](NC(=O)[C@H](CCC(=O)O)NC(C)=O)CSSC[C@@H](C(=O)N2CCC[C@H]2C(N)=O)NC(=O)[C@H](Cc2c[nH]c3ccccc23)NC1=O` [cs-SALF55-76] (Ac-ECKFTVKPYLKRFQVYYKGRMWCP-NH2; disulfide 2-23; N-terminus and C-terminus assumed), in experiment [1], the “Effect on cellular and nuclear membranes (EtBr/AO red color in nuclei)” value (“Effect on cellular and nuclear membranes” below) was “destroyed the cellular and nuclear membranes”. In addition, the “Cell morphology by SEM” value in experiment [2] was “damaged cell membranes and distorted cell shape”. Also, the “Cells died after treatment” value in experiment [3] (setting [9]) is “most ATCC 50148 cells died”; in experiment [3] (T1 cells, 25 μg/ml, 16 hours), “most T1 cells died”. In addition, the “Cell morphology by TEM” value in experiment [4] was “significantly disrupted the intact structure”.
As to “GFIFHIIKGLFHAGKMIHGLV-NH2 [Epinecidin-122-42]”, in experiment [1], the “Effect on cellular and nuclear membranes” value was “destroyed the cellular and nuclear membranes”. Also, the “Cell morphology by SEM and TEM” value was “irregular shape and disrupted outer/intracellular membranes” in experiment [5]; “destroyed the outer membranes of P. acnes cells” in experiment [6]. In addition, the “Cell morphology by SEM” value in experiment [2] was “damaged cell membranes and distorted cell shape”. The “Viable cells after treatment” value is listed as “No viable cells” in experiment [3] (ATCC 50148 cells, 25 μg/ml, one hour) and “No viable cells” in experiment [3] (T1 cells, 25 μg/ml, four hours). Also, in experiment [3] (T1 cells, 50 μg/ml, one hour), the “Cells died after treatment” value is “More than 60%”. In addition, the Cell growth inhibition entry in experiment [7] (C. albicans BCRC #20511, various concentrations) is “significantly inhibited C. albicans cell growth”. Besides, the Minimum inhibitory concentration in experiment [7] (strain BCRC #20511) was determined as 25 µg/mL; in experiment [8], 200 µg/mL. Besides, the “Cell morphology by TEM” value in experiment [4] was “significantly disrupted the intact structure”.
As to `CSCC[C@H](NC(=O)[C@H](CCCNC(=N)N)NC(=O)CNC(=O)[C@H](CCCCN)NC(=O)[C@H](Cc1ccc(O)cc1)NC(=O)[C@H](Cc1ccc(O)cc1)NC(=O)[C@@H](NC(=O)[C@H](CCC(N)=O)NC(=O)[C@H](Cc1ccccc1)NC(=O)[C@H](CCCNC(=N)N)NC(=O)[C@H](CCCCN)NC(=O)[C@H](CC(C)C)NC(=O)[C@H](Cc1ccc(O)cc1)NC(=O)[C@@H]1CCCN1C(=O)[C@H](CCCCN)NC(=O)[C@@H](NC(=O)[C@@H](NC(=O)[C@H](Cc1ccccc1)NC(=O)[C@H](CCCCN)NC(=O)[C@H](CS)NC(=O)[C@@H](N)CCC(=O)O)[C@@H](C)O)C(C)C)C(C)C)C(=O)N[C@@H](Cc1c[nH]c2ccccc12)C(=O)N[C@@H](CS)C(=O)N1CCC[C@H]1C(=O)O` [ls-SALF55-76] (H-ECKFTVKPYLKRFQVYYKGRMWCP-OH; N-terminus and C-terminus assumed), the “Effect on cellular and nuclear membranes” value in experiment [1] is “destroyed the cellular and nuclear membranes”. Moreover, the “Cell morphology by SEM” value in experiment [2] was “damaged cell membranes and distorted cell shape”. For the same compound, the “Cells died after treatment” value in experiment [3] (setting [9]) is listed as “most ATCC 50148 cells died”; in experiment [3] (T1 cells, 25 μg/ml, 16 hours), “most T1 cells died”. Besides, the “Cell morphology by TEM” value in experiment [4] is “significantly disrupted the intact structure”.
